Measurements reported in patent publication US7279548B2, “Identification and isolation of novel polypeptides having WW domains and methods of using same” (Cytogen Corporation, priority 1996, dated 2007).
Entries after “also recorded” stand apart in the source; their conditions may differ. No end group written: not given here. *: point of attachment. Biotin = O=C1N[C@H]2[C@H](CS[C@H]2CCCCC(=O)*)N1

Target: T1, WWP3 WW domain expressed as GST fusion protein (Homo sapiens, UniProt Q96QZ7)
T1 construct: made in house
T1 sequence (Q96QZ7 300-337 limits assumed): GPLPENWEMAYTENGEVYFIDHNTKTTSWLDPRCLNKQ
Assay: ELISA based cross affinity mapping, WWP3 WW domain
Type: binding
Details: biotinylated peptide-streptavidin/alkaline phosphatase complex
Description: The 16 day mouse embryo cDNA expression library was diluted 1:1000 in SM solution (100 mM NaCl, 8 mM MgSOv4, 50 mM Tris HCl pH 7.5, 0.01% gelatin). To a sterile test tube, 2 μl of diluted mouse embryo library, 100 μl of 10 mM CaCl2, 100 μl of 10 mM MgCl2 and 100 μl of BL21(DE3)pLysE bacterial cells (grown overnight) were added and incubated for 30 minutes at 37° C. The contents of the tube were mixed with 3 ml of 0.6% top agarose, containing […] chloramphenicol, and poured onto a 2xYT plate (90 mm diameter). For a large primary screen, 10–20 plates were prepared with 3×10^4 pfu per plate. After 6 hours incubation at 37° C., a nitrocellulose filter soaked in 10 mM isopropyl-β-D-thiogalactopyranoside (IPTG) was overlaid on each plate and incubated 3–6 hours at 37° C. Before the filters were removed from the plates, they were marked asymmetrically with India ink in a 18 gauge syringe needle. The plates were stored at 4° C. until ready for the secondary screen. The filters were washed with PBS (137 mM NaCl, 2.7 mM KCl, 4.3 mM Na2HPO4, 1.4 mM KH2PO4)-0.05% Triton X-100 three times at room temperature, 15 minutes each wash, and then placed in a plastic bag containing non-specific blocking solution (PBS-2% BSA) for one hour. In the meantime, 1 ml of 1 mM biotinylated peptide in PBS-0.1% Tween 20 was added to 20 ml of 1 mg/ml streptavidin-alkaline phosphatase (SA-AP) in PBS-0.1% Tween 20 and incubated at 4° C. for 30 minutes. As an alternative method of forming multivalent complexes, 50 pmol biotinylated peptide could have been incubated with 2 μg SA-AP (for a biotin:biotin-binding site ratio of 1:1). Excess biotin-binding sites would then be blocked by addition of 500 pmol biotin. As a further alternative, 31.2 μl of 1 mg/ml SA-AP could have been incubated with 15 μl of 0.1 mM biotinylated peptide for 30 min at 4° C. Ten μl of 0.1 mM biotin would then be added, and the solution incubated for an additional 15 min.
To determine the ligand preferences of the novel WW omain-containing clones described in Sections 6.1 and 6.1.1, as well as addressing the issue of whether peptides containing PPPPY (SEQ ID NO:3)-like motifs derived from a variety of proteins could also serve as recognition units and bind to these clones, a cross affinity mapping experiment was performed (FIGS. 15A–D). The peptides shown in FIGS. 15A–D were synthesized, biotinylated, complexed with streptavidin-alkaline phosphatase, and tested in an ELISA based assay for their ability to bind to the twelve individual novel WW domains of WWP1, WWP2, WWP3 and WWP4 which were expressed as GST fusion proteins. The ELISA based cross-affinity experiments were performed essentially as described by Sparks et al. (1996, Proc. Natl. Acad. Sci. 93:1540–1544) with the following modifications. Briefly, microtiter wells were coated with 1–5 μg of fusion protein in 100 mM NaHCO3, blocked with SuperBlock TBS (Pierce) and washed four times with PBS, 0.05% Tween 20. Specific peptide-streptavidin/alkaline phosphatase complexes were added as above and unbound complexes washed five times with PBS, 0.05% Tween 20. Following addition of PNP substrate (p-nitrophenyl phosphate, Kirkegard & Perry Labs), peptide binding was quantitated after 30 min. at O.D. 405 nm. Relative binding measurements from three independent determinations were assigned to a scale as follows: O.D. units 0–0.5=(−), 0.5–1.0=(+), 1.0–2.0=(++), 2.0–3.0=(+++), >3.0=(++++). Peptide binding to human Fyn and Lyn SH3 and SH2 domains was assessed by a filter binding assay (see Section 6.1 and Sparks et al., 1996, Proc. Natl. Acad. Sci 93:1540–1544). […]

| Substance | binding to WWP3 WW domain |
| --- | --- |
| Biotin-SGSGYVQPPPPPYPGPM [WBP-2A] | specifically binds; also recorded: bound |
| Biotin-SGSGPGTPYPPPPEFY [WBP-2B] | not |
| Biotin-SGSGPGTPPPPYTVGPGY [WBP-1] | not |
